# Assay results taken from article PMC11957517, “Efficient production of hydroxysalidroside in Escherichia coli via enhanced glycosylation and semi-rational design of UGT85A1” (Synthetic and Systems Biotechnology, 2025).
# Columns and labels:
# UGT33 = molecular target: T1, UGT33 (Rhodiola rosea, UniProt A0A2I6B3R9); assay: whole-cell conversion in E. coli, HPLC; format: cell-based; details: intracellular UDPG, pgm and galU overexpressed, 48 h
# T1 construct: synthesized gene in pETDuet-1, E. coli BL21(DE3) whole cells with pCDFDuet-pgm-galU
# T1 sequence (A0A2I6B3R9 1-498): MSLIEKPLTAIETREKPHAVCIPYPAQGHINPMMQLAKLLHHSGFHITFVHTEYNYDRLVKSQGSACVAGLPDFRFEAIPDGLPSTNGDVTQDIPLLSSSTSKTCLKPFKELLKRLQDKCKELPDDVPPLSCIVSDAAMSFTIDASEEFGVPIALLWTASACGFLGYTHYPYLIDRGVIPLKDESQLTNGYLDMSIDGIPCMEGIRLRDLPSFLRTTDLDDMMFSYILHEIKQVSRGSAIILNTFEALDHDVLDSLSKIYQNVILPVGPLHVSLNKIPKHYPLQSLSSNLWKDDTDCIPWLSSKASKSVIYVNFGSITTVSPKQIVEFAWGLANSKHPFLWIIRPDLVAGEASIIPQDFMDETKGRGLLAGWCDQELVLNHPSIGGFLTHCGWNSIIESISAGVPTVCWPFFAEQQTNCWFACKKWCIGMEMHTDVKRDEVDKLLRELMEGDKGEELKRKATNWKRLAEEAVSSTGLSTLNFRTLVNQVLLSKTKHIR
# UGT13 = molecular target: T2, UGT13 (Oryza sativa, UniProt Q6Z684); assay: whole-cell conversion in E. coli, HPLC; format: cell-based; details: intracellular UDPG, pgm and galU overexpressed, 48 h
# T2 construct: synthesized gene in pETDuet-1, E. coli BL21(DE3) whole cells with pCDFDuet-pgm-galU
# T2 sequence (Q6Z684 1-485): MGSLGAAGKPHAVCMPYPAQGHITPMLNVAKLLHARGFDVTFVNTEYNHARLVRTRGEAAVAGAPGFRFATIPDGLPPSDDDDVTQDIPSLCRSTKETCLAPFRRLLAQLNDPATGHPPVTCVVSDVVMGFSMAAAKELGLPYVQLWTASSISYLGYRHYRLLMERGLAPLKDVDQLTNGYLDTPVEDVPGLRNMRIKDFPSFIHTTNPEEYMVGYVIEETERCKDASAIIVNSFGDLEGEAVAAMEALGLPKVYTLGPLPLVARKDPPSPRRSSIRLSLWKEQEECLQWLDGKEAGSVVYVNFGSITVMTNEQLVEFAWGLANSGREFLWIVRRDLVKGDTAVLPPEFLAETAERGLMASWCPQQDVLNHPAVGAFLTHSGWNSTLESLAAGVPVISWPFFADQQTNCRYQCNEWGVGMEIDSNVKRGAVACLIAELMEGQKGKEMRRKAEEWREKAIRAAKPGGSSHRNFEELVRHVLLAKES
compound,measurement,setting,value
OCCc1ccc(O)c(O)c1 [hydroxytyrosol],"whole-cell conversion in E. coli, HPLC",UGT33,all these enzymes could catalyze the synthesis of hydroxysalidroside
same,"whole-cell conversion in E. coli, HPLC",UGT13,all these enzymes could catalyze the synthesis of hydroxysalidroside
